{"source": "patent US20040235794A1", "about": "“Remedies for respiratory diseases comprising sphingosine-1-phosphate receptor controller” (priority 2001, published 2004)", "key": {"[1]": {"tested_on": "isolated trachea of guinea pig", "experiment": "Constriction of isolated trachea of guinea pig (magnus tube)", "procedure": "The trachea of euthanized male Hartley ginea pig was removed and immersed quickly in Krebs-Henseleit solution (112 mmol/L sodium chloride, 5.9 mmol/L potassium chloride, 2.0 mmol/L calcium chloride, 1.2 mmol/L magnesium chloride, 1.2 mmol/L monobasic sodium phosphate, 25.0 mmol/L sodium hydrogen carbonate NaHCO3, 11.5 mmol/L glucose, 4° C.). A removed tissue was hooked as helical sample in magnus tube (volume: 10 mL) filled with Krebs-Henseleit solution (37±1° C., [aerated with 95% O2+5% CO2]). After stabilizing for 60 minutes in tensioned condition with 1 g, contraction was measured by recorder from force displacement transducer via distortion amplifier. The contraction of control was obtained by high concentration solution of potassium chloride (sodium chloride in Krebs-Henseleit solution was all exchanged to potassium chloride), or by stimulation with leukotriene D4 (LTD4) or histamine. After contraction by S1P, EDG-5 antagonist was added. Washing process of a specimen was repeated just in time, after hooked in magnus tube."}, "anesthetized guinea pig [2]": {"tested_on": "anesthetized guinea pig", "experiment": "Airway resistance of guinea pig after intravenous administration", "format": "in vivo", "conditions": "injected intravenously", "procedure": "Male guinea pigs (Standard Hartley, 5 to 7 weeks-old, 300 to 500 g body weight in use) were anesthetized by pentobarbital (50 mg/kg intraabdominal dosage), and fixed at dorsal position. Then, trachea and jugular were cannulated. S1P was injected intravenously, and airway resistance was measured as described in Example 1."}, "[3]": {"tested_on": "Normal human airway smooth muscle cells", "experiment": "DNA synthesis (BrdU incorporation) of human airway smooth muscle cells induced by S1P", "format": "cell-based", "procedure": "Normal human airway smooth muscle cells (BMSC; BioWhittaker) were cultured using MEM-A medium (GIBCO) containing 10% FBS (fetal calf serum), gentamicin (50 μg/mL), amphotericin B (50 ng/mL), and human bFGF, human insulin for 24 hours and deoxybromouridine (BrdU) was added.\nNormal human airway smooth muscle cells (BMSC; BioWhittaker) were plated in 96 well plate using MEM-α medium containing human insulin at density of 1×10^4 cells/well. After 24 hour incubation, wash 2 times with Hanks solution, and serum-free medium (MEM-α/gentamicin (50 μg/mL), amphotericin B (50 ng/mL)) was added and incubated for 24 hours. S1P was added at the final concentration of 0.03 μM to 10 μM, deoxybromouridine (BrdU) was added at the same time, and incubated for 6 hours, and then the activity of BrdU incorporation was measured. As control, equal volume of physiological salt solution, which is vehicle of S1P, was added.\nCells were treated with BrdU, and culture supernatant was discarded. 150 μL of Cell fixation·DNA denaturation buffer was added to each well and incubated for 30 minutes. Cell fixation·DNA denaturation buffer was removed and blocking buffer (150 μL) was added. […] After 15 minutes, 25 μL of 2N sulfuric acid was added and absorbance at 450 nm was measured. […]"}, "anesthetized guinea pig [4]": {"tested_on": "anesthetized guinea pig", "experiment": "Airway resistance of anesthetized guinea pig after inhalation (modified Konzett and Rossler method)", "format": "in vivo", "conditions": "for increase of airway resistance: inhalation for five minutes, 0.01 to 1 mg/mL, S1P effect at 0.1 to 1 mg/mL", "procedure": "(§1) The measurement of guinea pig airway resistance was carried out by the modified Konzett and Rossler method (Naunyn-Schmied. Arch. Exp. Path. Pharmak. 195, 71- ). Male Hartley guinea pigs (5 to 7 weeks-old, 300 to 500 g body weight in use) were anesthetized by pentobarbital (50 mg/kg intraabdominal dosage), and fixed at dorsal position. Then, trachea and jugular were cannulated. Airway was managed by a respirator (5 mL/stroke, 60 strokes/min) and air road was diverged with a T-tube and connected to broncho-spasm-transducer and airway resistance was measured. To guinea pigs, gallamine (1 mg/kg, i.v.) was administered and immobilized. In this connection, acetylcholine was administered (30 μg/kg, i.v.) before inhalation of a compound in order to ascertain that that there was no considerable difference in sensitivity of transient airway constriction between individual animals, and then, animals which have coordinative sensitivity were used. S1P (Alexis) was vaporized and inhaled with supersonic wave type nebulizer (Omron NE U-07) for five minutes (Jpn. J. Pharm. 50, 445-466 (1989)). Complete obstruction (total area) was calculated as area as follows; deduct the value of airway resistance at startup of S1P inhalation from the value of airway resistance that is obtained at the time of clamping the tube of tracheal cannula side, and obtained value is multiplied by 10 minutes (5 minutes for inhalation and 5 minutes for post-inhalation). […] S1P (0.01 to 1 mg/mL) was inhaled to anesthetized guinea pig and airway resistance was measured. The reference example was carried out using 10% meylon and sphingosine (Matreya, 0.01 to 1 mg/mL) with method described in example 1."}, "[5]": {"tested_on": "human airway smooth muscle cells", "experiment": "Cell toxicity assessment using released LDH", "format": "cell-based", "conditions": "released LDH as indicator"}, "anesthetized guinea pig [6]": {"tested_on": "anesthetized guinea pig", "experiment": "Inhibition of S1P-induced increase of airway resistance of anesthetized guinea pig in vivo", "conditions": "S1P 0.1 mg/mL inhaled; compound intravenously injected after increase of airway resistance", "procedure": "The measurement of guinea pig airway resistance was carried out by the modified Konzett and Rossler method (Naunyn-Schmied. Arch. Exp. Path. Pharmak. 195, 71- ). Male Hartley guinea pigs (5 to 7 weeks-old, 300 to 500 g body weight in use) were anesthetized by pentobarbital (50 mg/kg intraabdominal dosage), and fixed at dorsal position. Then, trachea and jugular were cannulated. Airway was managed by a respirator (5 mL/stroke, 60 strokes/min) and air road was diverged with a T-tube and connected to broncho-spasm-transducer and airway resistance was measured. To guinea pigs, gallamine (1 mg/kg, i.v.) was administered and immobilized. S1P was vaporized and inhaled with supersonic wave type nebulizer for five minutes (Jpn. J. Pharm. 50, 445-466 (1989)). S1P (0.1 mg/mL) was inhaled to the anesthetized guinea pig, and airway resistance was measured. After a increase of strong airway resistance was recognized, compound 1 was intravenously injected."}, "EDG-3": {"molecular_target": "T1, EDG-3 (Homo sapiens, UniProt Q99500)", "T1 construct": "expressed in transfected cells; host or cells: CHO inferred from 'method as in EDG-5'", "T1 sequence (Q99500 whole entry)": "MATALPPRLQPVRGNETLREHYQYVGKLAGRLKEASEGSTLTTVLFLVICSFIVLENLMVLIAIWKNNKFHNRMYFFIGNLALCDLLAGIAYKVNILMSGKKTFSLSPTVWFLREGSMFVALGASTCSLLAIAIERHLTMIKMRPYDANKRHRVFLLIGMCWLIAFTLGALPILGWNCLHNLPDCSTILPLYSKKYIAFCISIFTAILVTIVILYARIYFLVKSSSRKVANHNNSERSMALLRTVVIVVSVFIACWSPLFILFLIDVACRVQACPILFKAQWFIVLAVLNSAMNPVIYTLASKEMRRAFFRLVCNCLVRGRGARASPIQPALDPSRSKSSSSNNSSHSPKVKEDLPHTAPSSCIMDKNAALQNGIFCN", "experiment": "Antagonistic activity for EDG-3 (S1P-induced intracellular calcium, CHO cells)", "format": "cell-based", "conditions": "CHO cells expressing EDG-3, S1P 100 nM"}, "human EDG-1": {"molecular_target": "T2, human EDG-1 (Homo sapiens, UniProt P21453)", "T2 construct": "expressed in transfected cells; host or cells: CHO inferred from 'method as in EDG-5'; the EDG-1 sentence says only 'cells'", "T2 sequence (P21453 whole entry)": "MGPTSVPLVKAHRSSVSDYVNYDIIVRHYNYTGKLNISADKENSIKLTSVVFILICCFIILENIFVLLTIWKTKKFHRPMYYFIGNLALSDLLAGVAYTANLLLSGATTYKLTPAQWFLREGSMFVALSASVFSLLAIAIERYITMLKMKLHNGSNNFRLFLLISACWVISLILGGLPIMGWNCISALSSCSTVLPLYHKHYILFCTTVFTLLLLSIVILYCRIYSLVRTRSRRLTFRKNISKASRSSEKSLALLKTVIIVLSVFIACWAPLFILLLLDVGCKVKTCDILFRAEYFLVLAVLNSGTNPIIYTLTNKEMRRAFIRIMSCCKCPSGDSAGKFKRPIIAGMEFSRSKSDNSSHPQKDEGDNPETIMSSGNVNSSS", "experiment": "Antagonistic activity for EDG-1 (S1P-induced intracellular calcium, CHO cells)", "format": "cell-based", "conditions": "CHO cells expressing human EDG-1, S1P 100 nM"}, "human EDG-5": {"molecular_target": "T3, human EDG-5 (Homo sapiens, UniProt O95136)", "T3 construct": "expressed in transfected cells; host or cells: CHO cells", "T3 sequence (O95136 whole entry)": "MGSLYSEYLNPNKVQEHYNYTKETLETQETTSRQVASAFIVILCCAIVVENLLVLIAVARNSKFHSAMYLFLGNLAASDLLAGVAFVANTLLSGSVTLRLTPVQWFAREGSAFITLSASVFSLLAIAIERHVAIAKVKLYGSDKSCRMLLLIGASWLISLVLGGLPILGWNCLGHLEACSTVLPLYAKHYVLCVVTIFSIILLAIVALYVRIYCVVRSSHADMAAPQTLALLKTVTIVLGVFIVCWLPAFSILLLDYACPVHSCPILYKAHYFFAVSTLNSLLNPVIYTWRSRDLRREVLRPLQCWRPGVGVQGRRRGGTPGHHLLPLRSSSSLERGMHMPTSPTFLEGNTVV", "experiment": "Antagonistic activity for EDG-5 (S1P-induced intracellular calcium, CHO cells)", "format": "cell-based", "conditions": "CHO cells expressing human EDG-5, S1P 100 nM", "procedure": "Chinese hamster ovary (CHO) cells which expressed excessively human EDG-5 gene were cultured using a Ham's F12 medium (GIBCO BRL) containing 10% FBS (fetal bovine serum), penicillin/streptomycin, and blasticidin (5 μg/ml). Cultured cells were incubated in a Fura2 (5 μM) -AM solution [Ham's F12 medium containing FBS (10%), HEPES buffer (20 mM, pH7.4), and probenecid (2.5 mM)] at 37° C. for 60 minutes. Then washed once with a Hank's solution (2.5 mM) containing probenecid and immersed into the same solution. A plate was set on a fluorescent drug screening system, and measured for 30 seconds with no stimulation, a solution of a compound (dimethyl sulfoxide solution of 1 nM to 10 μM at the final concentration) to be tested was added. After lapse of 5 minutes, S1P (final concentration: 100 nM) was added, the intracellular calcium ion concentration before and after the addition was measured every 3 seconds (excitation wave length: 340 nm and 380 nm; fluorescent wave length: 500 nm). […]"}, "anesthetized guinea pig [7]": {"tested_on": "anesthetized guinea pig", "experiment": "Effect of pre-treatment on increase of airway resistance induced by S1P", "format": "in vivo", "conditions": "pretreatment 100 μg/mL, i.v.", "procedure": "as §1, with “S1P (Alexis) was vaporized and inhaled with supersonic wave type nebulizer (Omron NE U-07) for five minutes (Jpn. J. Pharm. 50, 445-466 (1989)).” left out, “The reference example was carried out using 10% meylon and sphingosine (Matreya, 0.01 to 1 mg/mL) with method described in example 1.” left out"}}, "data": [{"molecule": "CCCCCCCCCCCCC/C=C/[C@@H](O)[C@@H](N)COP(=O)(O)O", "note": "[Compound S1P, (2S, 3R, 4E)-2-amino-3-hydroxyoctadeca-4-enyl-1 phosphate]", "values": [{"measurement": "contraction of guinea pig trachea", "setting": "[1]; S1P 10 μmol/L", "value": "very slow contraction"}, {"measurement": "rate of contraction relative to other constricting drug (LTD4, histamine etc.)", "setting": "[1]; S1P 10 μmol/L", "value": "3 to 5", "unit": "fold slower"}, {"measurement": "time to plateau of contraction", "setting": "[1]; S1P 10 μmol/L", "value": "30 to 60", "unit": "min"}, {"measurement": "increase of airway resistance", "setting": "anesthetized guinea pig [2]", "value": "Increase of airway resistance was observed"}, {"measurement": "increase of airway resistance compared with histamine", "setting": "anesthetized guinea pig [2]", "value": "slight compared with that of histamine"}, {"measurement": "DNA synthesis of human airway smooth muscle cells", "setting": "[3]; S1P 0.03 μM to 10 μM, BrdU 6 hours", "value": "induces DNA synthesis"}, {"measurement": "increasing effect on airway resistance compared with inhalation of histamine", "setting": "anesthetized guinea pig [4]; inhalation 0.01 to 1 mg/mL, converted to number of moles", "value": "at the same level"}, {"measurement": "increase of airway resistance", "setting": "anesthetized guinea pig [4]", "value": "strong increase of airway resistance was observed"}]}, {"molecule": "CCCCCCCCCCCCC/C=C/[C@@H](O)[C@@H](N)CO", "note": "[sphingosine]", "values": [{"measurement": "increase of airway resistance", "setting": "anesthetized guinea pig [4]", "value": "increase of airway resistance was not observed"}]}, {"molecule": "NCCc1c[nH]cn1", "note": "[histamine]", "values": [{"measurement": "increase of airway resistance", "setting": "anesthetized guinea pig [2]", "value": "increase"}, {"measurement": "increase of airway resistance", "setting": "anesthetized guinea pig [4]", "value": "increase of airway resistance"}]}, {"molecule": "Cc1nn(C)c2nc(NNC(=O)Nc3c(Cl)cncc3Cl)cc(C(C)C)c12", "note": "[Compound 1, N-(1H-1,3-dimethyl-4-isopropylpyrazolo[3,4-b]pyridine-6-yl)amino-N′-(3,5-dichloropyridine-4-yl)urea]", "values": [{"measurement": "inhibition of constriction induced by S1P", "setting": "[1]; added after contraction by S1P", "value": "inhibited constriction induced by S1P"}, {"measurement": "LDH activity in medium", "setting": "[5]", "value": "did not enhancement LDH activity in medium"}, {"measurement": "inhibition of increase of airway resistance induced by S1P", "setting": "anesthetized guinea pig [6]", "value": "inhibited"}, {"measurement": "antagonism of S1P-induced BrdU incorporation", "setting": "[3]; compound 0.01 μM to 10 μM, S1P 3 μM, 6 hours", "value": "antagonized against S1P"}, {"measurement": "IC50", "setting": "EDG-3", "value": "> 10", "unit": "µM"}, {"measurement": "IC50", "setting": "human EDG-1", "value": "> 10", "unit": "µM"}, {"measurement": "IC50", "setting": "human EDG-5", "value": 0.01, "unit": "µM"}]}, {"molecule": "CC(C)(C)NCC(O)c1ccc(O)c(CO)c1", "note": "(stereo not shown) [salbutamol]", "values": [{"measurement": "inhibition of increase of airway resistance induced by S1P", "setting": "anesthetized guinea pig [7]", "value": "inhibited only partially"}]}]}
